# According to ChEMBL document CHEMBL1155734, “Multiplolides A and B, new antifungal 10-membered lactones from Xylaria multiplex” (J Nat Prod, 2001):
# Active and inactive are the calls of the source. The rule behind the calls is not given here.
# Tests used:
# Candida albicans = experiment: Antifungal activity against Candida albicans by colorimetric method; type: functional, organism-based
# BC1 = experiment: Cytotoxicity against human BC1 cells at 20 ug/mL; type: functional, cell-based
# Plasmodium falciparum [1] = experiment: Antimalarial activity as growth inhibition of Plasmodium falciparum K1 at 20 ug/mL by [3H]hypoxanthine uptake; type: functional, organism-based
# KB = experiment: Cytotoxicity against human KB cells at 20 ug/mL; type: functional, cell-based
# Plasmodium falciparum [2] = experiment: Antimalarial activity as growth inhibition of Plasmodium falciparum K1 by [3H]hypoxanthine uptake; type: functional, organism-based
IC50 (Candida albicans) [µg/mL],Compound,Activity (BC1),Activity (Plasmodium falciparum [1]),Activity (KB),IC50 (Plasmodium falciparum [2]) [ng/mL]
0.01,C[C@@H]1[C@H](O)[C@@H](C)/C=C/C=C/C=C/C=C/C=C/C=C/C=C/[C@H](O[C@@H]2O[C@H](C)[C@@H](O)[C@H](N)[C@@H]2O)C[C@@H]2O[C@](O)(C[C@@H](O)C[C@@H](O)[C@H](O)CC[C@@H](O)C[C@@H](O)CC(=O)O[C@H]1C)C[C@H](O)[C@H]2C(=O)O [AMPHOTERICIN B],–,–,–,–
2,C/C=C/C(=O)O[C@@H]1C[C@@H](C)OC(=O)C2OC2/C=C/[C@@H]1O (stereo not given in full) [MULTIPLOLIDE B],inactive,inactive,inactive,–
7,C[C@@H]1C[C@@H](O)[C@@H](O)/C=C/[C@@H]2O[C@@H]2C(=O)O1 [MULTIPLOLIDE A],inactive,inactive,inactive,–
–,C[C@@H]1CC[C@H]2[C@@H](C)C(=O)O[C@@H]3O[C@@]4(C)CC[C@@H]1[C@]32OO4 [ARTEMISININ],–,–,–,1
